One assay relates to COLO16 cells. Kind of assay: Doxorubicin-induced apoptosis, FACS. To be noted: 1 μM, 24 hr.
The subject of assay [1] is E1A and HRAS^G12V-transformed wild-type (WT) MEFs. Description: Soft agar colony formation. In kind it is cell-based, mouse. To be noted: 0.2 μM and 1.0 μM, 4–6 weeks.
The subject of a further assay is phospho-JNK. Kind of assay: Immunohistochemistry of cSCC from Hairless mice. The format is in vivo, mouse. Conditions: p=0.046. The source says:
(§1) We also used the Hairless mouse model of squamous cell carcinoma to assess whether PLX4720 would affect UV-driven tumor development. This is particularly relevant since it appears that UV exposure is an important initiating event in BRAFi-accelerated cSCC ([Su et al., 2012]). Unlike the DMBA/TPA model, in which lesions almost universally harbor Hras mutations ([Brown et al., 1990]), the Hairless model has a very low frequency of Ras mutation in papillomas and carcinomas ([van Kranen et al., 1995]), more similar to sporadic human cSCC. […]
(§2) Figure 5. […] (A and B) cDNA was reverse-transcribed from total RNA, PCR-amplified with the above primers (B) and analyzed by Sanger sequencing for mutations in both directions. No mutations in Hras, Kras, or Nras were detected in any of the papillomas (n = 5) or carcinomas (n = 3) isolated from PLX4720-treated mice. […]
(§3) Cutaneous squamous cell carcinomas biopsied from patients treated with or without BRAF-inhibitor were obtained either under clinical trials (Roche) or separate IRB approval (LAB08-0750). Staining levels were quantified by counting positively labeled cells and dividing by the total area of the tumor tissue within each sample. To measure tumor areas, all samples were photographed, tumor cells outlined, and total pixel numbers calculated using included image analysis tools in Adobe Photoshop and standardized to a hemacytometer to convert to mm^2. […]

For another assay, the system named is cleaved caspase 3. Kind of assay: Immunohistochemistry of cSCC from Hairless mice. In kind it is in vivo, mouse. Conditions: p=0.019.
Description: as §1, §2, §3

A further assay relates to HaCaT cells. Description: Doxorubicin-induced apoptosis, FACS. Conditions: 1 μM, 24 hr.
The next assay relates to phospho-ERK. To be noted: A375 and WM35.
The subject of assay [2] is phospho-JNK and phospho-p38. Description: Western blot, UV-induced phospho-JNK and phospho-p38 in NHEKs. In kind it is cell-based, human. Conditions: NHEK, 1 μM, most significantly at 6 and 24 hr. The source says: We next examined the responses of primary normal human epidermal keratinocytes (NHEKs) to vemurafenib. […] In probing members of the BCL2 family, we found similar results to those in the cSCC and HaCaT cell lines. […] The advantage of using primary cells is that p53 is intact.
Figure 2. […] DOI: http://dx.doi.org/10.7554/eLife.00969.010 [drawing 5]
A general note: In western blotting, separated proteins are transferred to a membrane and probed.

The target in another assay is T1, TAOK2 (Homo sapiens, UniProt Q9UL54).
T1 construct: purchased KINOMEscan (DiscoveRx), San Diego, CA
T1 sequence (Q9UL54 1-1235): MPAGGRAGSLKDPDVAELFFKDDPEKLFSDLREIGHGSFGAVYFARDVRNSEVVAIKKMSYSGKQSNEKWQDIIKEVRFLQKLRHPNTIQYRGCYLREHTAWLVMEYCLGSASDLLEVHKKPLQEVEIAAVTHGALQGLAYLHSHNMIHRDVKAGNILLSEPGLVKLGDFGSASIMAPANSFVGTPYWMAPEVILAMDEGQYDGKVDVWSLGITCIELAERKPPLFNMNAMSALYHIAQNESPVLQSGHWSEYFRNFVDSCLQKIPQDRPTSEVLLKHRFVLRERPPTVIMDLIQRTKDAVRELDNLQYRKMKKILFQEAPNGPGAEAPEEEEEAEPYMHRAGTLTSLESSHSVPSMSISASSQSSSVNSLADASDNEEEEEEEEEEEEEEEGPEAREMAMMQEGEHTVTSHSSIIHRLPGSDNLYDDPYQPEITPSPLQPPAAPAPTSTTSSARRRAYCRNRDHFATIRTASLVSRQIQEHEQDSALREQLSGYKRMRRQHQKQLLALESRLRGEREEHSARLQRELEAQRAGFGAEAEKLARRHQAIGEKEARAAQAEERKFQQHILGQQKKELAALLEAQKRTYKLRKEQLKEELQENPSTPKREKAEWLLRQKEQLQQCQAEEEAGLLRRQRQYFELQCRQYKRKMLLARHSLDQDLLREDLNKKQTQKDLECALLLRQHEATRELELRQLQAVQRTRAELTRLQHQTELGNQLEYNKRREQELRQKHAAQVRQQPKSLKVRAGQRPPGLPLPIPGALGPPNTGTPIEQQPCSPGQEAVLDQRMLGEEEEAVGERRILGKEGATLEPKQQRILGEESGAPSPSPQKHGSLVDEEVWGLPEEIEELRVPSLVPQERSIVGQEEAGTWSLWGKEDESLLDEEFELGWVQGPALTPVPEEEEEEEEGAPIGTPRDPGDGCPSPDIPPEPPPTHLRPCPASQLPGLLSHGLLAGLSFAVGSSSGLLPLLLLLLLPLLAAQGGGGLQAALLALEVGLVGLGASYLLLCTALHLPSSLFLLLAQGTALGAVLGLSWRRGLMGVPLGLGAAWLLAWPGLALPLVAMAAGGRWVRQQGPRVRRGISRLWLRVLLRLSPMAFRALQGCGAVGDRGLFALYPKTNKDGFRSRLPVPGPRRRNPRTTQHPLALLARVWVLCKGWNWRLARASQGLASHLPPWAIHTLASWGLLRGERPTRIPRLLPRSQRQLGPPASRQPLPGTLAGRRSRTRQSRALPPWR
Also on record: method as in Bollag et al., 2010. Conditions: ref Bollag et al., 2010; read-out: Published biochemical IC50; cited from earlier work.

The IC50 is the concentration that gives 50% inhibition.

Molecules are shown by their SMILES.

Consider `CCCS(=O)(=O)Nc1ccc(F)c(C(=O)c2c[nH]c3ncc(Cl)cc23)c1F` [PLX4720], for which the “doxorubicin-induced apoptosis (Annexin V+, TMRE-low cells)” value in the assay with COLO16 cells and with HaCaT cells was “significant decrease in apoptosis” each time. Further, the colony formation entry in assay [1] is recorded as “significant colony formation advantage”. In the assay with phospho-JNK, the “phospho-JNK expression in tumors vs control-treated mice” value was “significant decreases”. The “cleaved caspase 3 expression in tumors vs control-treated mice” value in the assay with cleaved caspase 3 was “significant decreases”. Besides, the phospho-ERK expression result with phospho-ERK is “strongly suppressed”.

Consider `CCCS(=O)(=O)Nc1ccc(F)c(C(=O)c2c[nH]c3ncc(-c4ccc(Cl)cc4)cc23)c1F` [vemurafenib], for which the “UV-induced upregulation of phospho-JNK and phospho-p38” value in assay [2] is on record as “suppressed”. For the same compound, the half-maximal inhibitory concentration (IC50) at TAOK2 was greater than 1000 nM.

The values above are taken from paper PMC3814616, “BRAF inhibitors suppress apoptosis through off-target inhibition of JNK signaling” (eLife, 2013).
